Here are results for 25 compounds from US11530197B2, “Analogs for the treatment of disease” (Insilico Medicine IP Limited, priority 2021, dated 2022).

Structures are written as SMILES.

Series [1] addresses TNIK(h) (Homo sapiens (Human), UniProt Q9UKE5). Briefly: TNIK Human STE Kinase Enzymatic Radiometric Assay.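 Note: remaining kinase activity relative to DMSO control, compound added without preincubation, reaction started with ATP, IC50 from variable-slope sigmoidal dose-response fit.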 The series is classed as biochemical. To be noted: ATP 70 μM; 40 min at room temperature; read-out: TNIK (IC50).
Protocol: (§1) The reaction is initiated by the addition of the Mg/ATP mix. After incubation for 40 minutes at room temperature, the reaction is stopped by the addition of phosphoric acid to a concentration of 0.5%.
INCUBATION: 40 min at Room temperature
COMPOUND DILUTION SCHEME: All compounds supplied were prepared to a working stock of 50× final assay concentration in 100% DMSO. Where appropriate, more concentrated stocks were diluted manually to 50× using 100% DMSO. Compounds supplied as powders were reconstituted to a 10 mM stock in 100% DMSO before further dilution to 50×. ASSAY PROCEDURE: The required volume of the 50× stock of test compound was added to the assay before a reaction mix containing the enzyme and substrate was added. The reaction was initiated by the addition of ATP at the selected concentration. There was no pre-incubation of the compound with the enzyme/substrate mix prior to ATP addition. […] Results are expressed as kinase activity remaining, as a percentage of the DMSO control. This is calculated using the following formula:
(§2) For IC50 determinations, data are analyzed using XLFit version 5.3 (ID Business Solutions). Sigmoidal dose-response (variable slope) curves are fit based on the mean result for each test concentration using non-linear regression analysis. Where the top and/or bottom of the curve fall >10% out with 100 and 0, respectively, either or both of these limits may be constrained at 100 and 0, provided that the QC criterion on R2 is met.
Series [2] addresses MAP4K4 (h) (Homo sapiens (Human), UniProt O95819). Briefly: MAP4K4 Human STE Kinase Enzymatic Radiometric Assay.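 Note: kinase activity remaining relative to the DMSO control, IC50 derived from sigmoidal variable-slope curve fits, no preincubation of compound with enzyme before ATP start.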 Format: biochemical. To be noted: ATP 200 μM; 40 min at room temperature.
Protocol: as §1
INCUBATION: 40 min at Room temperature
COMPOUND DILUTION SCHEME: All compounds supplied were prepared to a working stock of 50× final assay concentration in 100% DMSO. Where appropriate, more concentrated stocks were diluted manually to 50× using 100% DMSO. Compounds supplied as powders were reconstituted to a 10 mM stock in 100% DMSO before further dilution to 50×.
ASSAY PROCEDURE: The required volume of the 50× stock of test compound was added to the assay before a reaction mix containing the enzyme and substrate was added. The reaction was initiated by the addition of ATP at the selected concentration. There was no pre-incubation of the compound with the enzyme/substrate mix prior to ATP addition.
Results are expressed as kinase activity remaining, as a percentage of the DMSO control. This is calculated using the following formula: Mean of Sample Counts−Mean of Blank Counts/Mean of Control Counts
as §2
Series [3] deals with Collagen I (COL1A1) in LX-2 cells. As to the kind of experiment: Collagen and Alpha-SMA in LX-2 (Western blot after TGF-β stimulation).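 Note: cells serum-starved in 0.4% FBS before treatment, lysates analysed by Western blot, DMSO-only wells as blank and TGF-β alone as maximal induction control, three independent experiments.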 Format: cell-based. Particulars: Homo sapiens, 4 ng/ml TGF-β for 48 hours, Collagen I normalized to GAPDH.
Protocol: 3 ml of 0.25% Trypsin-EDTA solution was then added and cells were incubated at 37° C. for 5 min for each T150-flask. 7 ml of culture medium was added to stop trypsinization. The cells were centrifuged at 300×g for 5 min. Supernatant medium was discarded and cells were re-suspended with fresh culture medium. The cells were counted with Cell viability analyzer. 5.0E+05 cells/well were seeded into 6-well plate containing 2.0 mL of culture medium. The cells were cultured overnight at 37° C. The next day, the complete medium was replaced with medium with 0.4% FBS for starvation. […] In parallel, medium containing only DMSO and TGF-β was used as blank control and positive control, respectively. TGF-β induction was used as maximum induction positive control. The culture medium was discarded at the end of induction. Cells were washed once using ice-cold DPBS. RIPA buffer was added to lyse the cells for 20 min. The cells were then scraped off the culture plate, collected in a tube and centrifuged. The supernatant was stored at −80° C. The total amount of protein in the lysate was determined using BCA Protein Assay kit. The cell treatment of fibrosis assay was performed in three independent experiments for each compound.
All the lysate samples were adjusted to the same protein concentration with RIPA buffer after BCA assay. […] The denatured samples were used for electrophoresis. Western blot was performed according to the standard protocols. The same volume of protein was loaded onto 4-12% Bis-Tris gel. Duplicate lysates of samples were loaded onto two gels. The gels were run for 0.5 h at 80 V and 120 V for another 1 h. When the electrophoresis was completed, the gels containing target protein Collagen I (COL1A1) were transferred onto NC membrane using Trans-Blot Electrophoretic Transfer Cell for 90 min at 100 V. The iBlot™ 2 Gel Transfer Device was used to transfer α-SMA and GAPDH at 20 V for 7 min. All the membranes were blocked in TBST buffer with 5% nonfat dry milk in at RT for 1 h and then incubated with primary antibody anti-COL1A1 and anti-α-SMA in TBST buffer containing 5% BSA at 4° C. overnight. For GAPDH detection, the membrane with α-SMA immunoblots were stripped with Restore™ Western Blot Stripping Buffer after detection. And the membranes were re-blocked and then re-probed with primary antibody anti-GAPDH antibody at room temperature (RT) for 2 h. After incubation with primary antibodies, membranes were washed with TBST, then incubated with the secondary antibody at RT for 1 h. Blots were visualized using the instrument Image Quant LAS-4000. The chemiluminescent signals derived from ECL Western blotting reagents were captured. The bands integrated intensity from 16-bit blot images was used for quantitation with the software (1D component of ImageQuant TL). The quantification raw data of the two duplicated gels was obtained from ImageQuant TL. Collagen I and α-SMA proteins expression level was normalized to GAPDH for each gel. The average normalization data of the two duplicated gels was calculated and applied to calculate IC50 using an equation for a sigmoidal dose response (variable slope) of GraphPad™ Prism software. The equation is Y=Bottom+(Top-Bottom)/(1+10^((Log IC50−X)*Hillslope). Note: X is the logarithm of compound concentration, Y is the average normalization data
A short description of series [4]: Metabolic stability in human liver microsomes.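 Note: NADPH-supplemented human liver microsomes sampled at 0, 5, 10, 20, 30 and 60 min, parent compound quantified by LC-MS/MS, intrinsic clearance from first-order decay, no-cofactor incubation as control.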 Format: in vitro ADME. To be noted: LM Clint; 1 μM test compound, 0.5 mg protein/mL microsome, 37° C., up to 60 min.
Protocol: Test Compound an Control Working Solution Preparation: Working solution: 5 μL of compound and control stock solution (10 mM in dimethyl sulfoxide (DMSO)) were diluted with 495 µL of acetonitrile (ACN) (intermediate solution concentration: 100 μM, 99% ACN).
Preparation Procedure: The appropriate amount of NADPH powder was weighed and diluted into a 10 mM MgCl2 solution (working solution concentration: 10 unit/mL; final concentration in reaction system: 1 unit/mL).
Preparation Procedure: The appropriate concentrations of microsome working solutions were prepared in 100 mM potassium phosphate buffer.
Stop Solution Preparation: Cold (4° C.) acetonitrile (ACN) containing 200 ng/mL tolbutamide and 200 ng/mL labetalol as internal standards (IS) was used as the stop solution.
Dilute liver microsomes to 0.56 mg/mL in 100 mM phosphate buffer.
Transfer 445 μL microsome working solutions (0.56 mg/mL) into pre-warmed ‘Incubation’ plates T60 and NCF60, Then pre-incubate ‘Incubation’ plates T60 and NCF60 for 10 min at 37° C. with constant shaking. Transfer 54 μL liver microsomes to blank plate, then add 6 μL NAPDH cofactor to blank plate, and then add 180 μL quenching solution to blank plate.
2.5.4 Add 5 μL compound working solution (100 μM) into ‘incubation’ plates (T60 and NCF60) containing microsomes and mix 3 times thoroughly.
For the NCF60 plate, add 50 μL of buffer and mix 3 times thoroughly. Start timing; plate will be incubated at 37° C. for 60 min while shaking.
For the T60 plate, mix 3 times thoroughly, and immediately remove 54 μL mixture for the 0-min time point to ‘Quenching’ plate. Then add 44 μL NAPDH cofactor to incubation plate (T60). Start timing; plate will be incubated at 37° C. for 60 min while shaking.
At 5, 10, 20, 30, and 60 min, add 180 μL quenching solution to ‘Quenching’ plates, mix once, and serially transfer 60 μL sample from T60 plate per time point to ‘Quenching’ plates.
For NCF60: mix once, and transfer 60 μL sample from the NCF60 incubation to ‘Quenching’ plate containing quenching solution at the 60-min time point.
All sampling plates are shaken for 10 min, then centrifuged at 4000 rpm for 20 minutes at 4° C.
Transfer 80 μL supernatant into 240 μL HPLC water, and mix by plate shaker for 10 min.
Each bioanalysis plate was sealed and shaken for 10 minutes prior to LC-MS/MS analysis.
The equation of first order kinetics was used to calculate T½ and Intrinsic clearance (CLint mic) in (L/min/mg).

MAP4K4 (h), sequence (O95819 whole entry): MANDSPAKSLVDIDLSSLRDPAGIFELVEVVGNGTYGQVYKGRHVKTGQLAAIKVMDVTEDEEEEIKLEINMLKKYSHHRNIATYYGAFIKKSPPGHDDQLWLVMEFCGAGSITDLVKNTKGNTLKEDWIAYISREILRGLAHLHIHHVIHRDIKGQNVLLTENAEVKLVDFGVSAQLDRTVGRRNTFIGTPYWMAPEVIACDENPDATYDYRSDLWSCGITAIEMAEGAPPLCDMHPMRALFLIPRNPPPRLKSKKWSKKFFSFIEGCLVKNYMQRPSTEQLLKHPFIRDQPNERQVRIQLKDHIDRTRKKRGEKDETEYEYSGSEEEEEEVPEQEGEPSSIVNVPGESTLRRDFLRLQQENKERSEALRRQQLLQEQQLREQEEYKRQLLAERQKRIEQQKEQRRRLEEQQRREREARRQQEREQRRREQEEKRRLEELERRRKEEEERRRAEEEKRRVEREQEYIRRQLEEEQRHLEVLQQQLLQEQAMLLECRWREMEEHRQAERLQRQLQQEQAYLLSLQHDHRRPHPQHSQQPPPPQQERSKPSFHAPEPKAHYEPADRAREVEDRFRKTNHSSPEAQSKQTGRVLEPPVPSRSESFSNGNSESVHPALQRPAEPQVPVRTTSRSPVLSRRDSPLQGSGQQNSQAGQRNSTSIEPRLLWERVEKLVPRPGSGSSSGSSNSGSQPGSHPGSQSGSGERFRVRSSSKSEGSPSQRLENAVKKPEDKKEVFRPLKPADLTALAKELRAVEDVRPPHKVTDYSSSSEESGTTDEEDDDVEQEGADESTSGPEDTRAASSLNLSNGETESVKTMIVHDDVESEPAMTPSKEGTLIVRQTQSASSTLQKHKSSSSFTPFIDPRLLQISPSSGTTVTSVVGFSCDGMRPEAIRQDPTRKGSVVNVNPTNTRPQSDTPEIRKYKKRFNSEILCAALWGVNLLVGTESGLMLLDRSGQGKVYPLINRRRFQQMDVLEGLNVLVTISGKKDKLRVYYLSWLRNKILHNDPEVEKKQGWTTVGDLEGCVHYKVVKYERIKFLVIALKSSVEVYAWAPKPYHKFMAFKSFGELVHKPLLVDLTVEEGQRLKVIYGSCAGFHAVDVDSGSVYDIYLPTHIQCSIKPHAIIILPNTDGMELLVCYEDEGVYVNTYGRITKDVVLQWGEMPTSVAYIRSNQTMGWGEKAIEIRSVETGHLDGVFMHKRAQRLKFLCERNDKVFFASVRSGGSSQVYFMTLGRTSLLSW
TNIK(h), sequence (Q9UKE5 whole entry): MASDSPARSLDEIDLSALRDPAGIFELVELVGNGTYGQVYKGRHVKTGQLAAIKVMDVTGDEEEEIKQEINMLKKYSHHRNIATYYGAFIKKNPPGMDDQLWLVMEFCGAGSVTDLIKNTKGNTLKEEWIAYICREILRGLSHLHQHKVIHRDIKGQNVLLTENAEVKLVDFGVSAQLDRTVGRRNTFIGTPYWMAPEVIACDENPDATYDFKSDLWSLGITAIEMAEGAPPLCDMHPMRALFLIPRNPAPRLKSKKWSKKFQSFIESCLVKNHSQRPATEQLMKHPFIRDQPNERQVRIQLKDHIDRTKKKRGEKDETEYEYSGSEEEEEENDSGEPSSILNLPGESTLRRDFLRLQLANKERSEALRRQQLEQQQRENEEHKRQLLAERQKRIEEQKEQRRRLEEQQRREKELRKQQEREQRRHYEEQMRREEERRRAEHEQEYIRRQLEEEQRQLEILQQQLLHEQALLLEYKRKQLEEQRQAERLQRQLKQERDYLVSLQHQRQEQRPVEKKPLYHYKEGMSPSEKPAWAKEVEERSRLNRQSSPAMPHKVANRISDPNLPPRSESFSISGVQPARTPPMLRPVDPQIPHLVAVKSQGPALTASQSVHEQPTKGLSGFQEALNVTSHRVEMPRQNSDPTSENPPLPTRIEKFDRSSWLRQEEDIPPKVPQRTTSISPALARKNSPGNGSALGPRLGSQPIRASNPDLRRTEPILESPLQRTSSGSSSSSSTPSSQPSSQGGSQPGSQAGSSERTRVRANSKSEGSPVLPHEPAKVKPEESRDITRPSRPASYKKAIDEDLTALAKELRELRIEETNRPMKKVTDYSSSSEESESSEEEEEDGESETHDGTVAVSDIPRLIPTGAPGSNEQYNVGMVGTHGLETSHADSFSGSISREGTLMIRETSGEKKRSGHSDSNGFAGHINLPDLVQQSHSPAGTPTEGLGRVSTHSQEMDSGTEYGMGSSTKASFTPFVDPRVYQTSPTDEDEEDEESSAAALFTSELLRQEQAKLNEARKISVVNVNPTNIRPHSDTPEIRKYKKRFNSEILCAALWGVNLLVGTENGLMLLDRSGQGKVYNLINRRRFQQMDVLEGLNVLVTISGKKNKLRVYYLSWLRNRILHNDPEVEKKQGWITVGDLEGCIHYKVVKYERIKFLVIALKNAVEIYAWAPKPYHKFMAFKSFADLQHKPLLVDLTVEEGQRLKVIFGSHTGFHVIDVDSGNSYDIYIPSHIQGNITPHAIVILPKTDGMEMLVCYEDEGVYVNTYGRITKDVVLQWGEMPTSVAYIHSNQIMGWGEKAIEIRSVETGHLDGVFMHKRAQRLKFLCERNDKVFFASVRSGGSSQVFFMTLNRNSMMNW

One may read the IC50 as the concentration that inhibits the measured activity by half. Turning to `CN1CCN(c2ccc(NC(=O)c3c[nH]c(-c4c(-c5ccc(F)cc5)ncn4CC(F)(F)F)n3)cc2)CC1=O` [Compound 194, 5′-(4-fluorophenyl)-N-(4-(4-methyl-3-oxopiperazin-1-yl)phenyl)-3′-(2,2,2-trifluoroethyl)-1H,3′H-[2,4′-biimidazole]-4-carboxamide], the IC50 in series [1] is 12 to 120 nM; in series [2], above 120 nM; in series [3], 0.1 to 1 nM.

`O=C(NC1CCOCC1)c1ccc(-c2c(-c3ccc(F)cc3)ncn2C2CCCC2)o1` [Compound 39] returned a 50% inhibitory concentration (IC50) in series [3] above 1 nM.

Consider `C[N+]1([O-])CCN(c2ccc(NC(=O)c3c[nH]c(-c4c(-c5ccc(F)cc5)ncn4CC(F)(F)F)n3)cc2)CC1` [Compound 166, 4-(4-(5′-(4-fluorophenyl)-3′-(2,2,2-trifluoroethyl)-1H,3′H-[2,4′-biimidazole]-4-carboxamido)phenyl)-1-methylpiperazine 1-oxide], for which the IC50 in series [1] and in series [2] was above 120 nM throughout. For the same compound, in series [4], the “Human Liver Microsome (μM/min/mg)” value is “+++ (1-10 μM/min/mg as +++)”.

Compound `O=C(Nc1ccccc1F)c1occc1-c1c(-c2cccnc2)ncn1C1CCCC1` [Compound 1] registered an IC50 in series [3] above 1 nM.

For `CN1[C@@H]2CC[C@H]1CN(c1ccc(NC(=O)c3c[nH]c(-c4c(-c5ccc(F)cc5)ncn4CC(F)(F)F)n3)cc1)C2` [Compound 193, 5′-(4-fluorophenyl)-N-(4-((1R,5S)-8-methyl-3,8-diazabicyclo[3.2.1]octan-3-yl)phenyl)-3′-(2,2,2-trifluoroethyl)-1H,3′H-[2,4′-biimidazole]-4-carboxamide], the half-maximal inhibitory concentration (IC50) in series [1] was 12 to 120 nM; in series [2], 12 to 120 nM; in series [3] it was below 0.1 nM.

`CC(=O)N1CCN(c2ccc(NC(=O)c3c[nH]c(-c4c(-c5ccc(F)cc5)ncn4CC(F)(F)F)n3)cc2)CC1` [Compound 191, N-(4-(4-acetylpiperazin-1-yl)phenyl)-5′-(4-fluorophenyl)-3′-(2,2,2-trifluoroethyl)-1H,3′H-[2,4′-biimidazole]-4-carboxamide]: the IC50 in series [1] was in the range of 12 to 120 nM; in series [2] it was 12 to 120 nM; in series [3] it was 0.1 to 1 nM.

`CC(C)n1cnc(-c2ccc(Cl)cc2)c1-c1nc(C(=O)Nc2ccc(CCC(=O)O)cc2)c[nH]1` [Compound 137, 3-(4-(5′-(4-chlorophenyl)-3′-isopropyl-1H,3′H-[2,4′-biimidazole]-4-carboxamido)phenyl)propanoic acid]: the figures for the IC50 in series [1] and in series [2] were 1 to 12 nM and above 120 nM, respectively. Moreover, the “Human Liver Microsome (μM/min/mg)” value in series [4] is given as “+++ (1-10 μM/min/mg as +++)”.

In the case of `CC(C)n1cnc(-c2ccc(F)cc2)c1-c1nc(C(=O)Nc2ccc(N3CCN(S(N)(=O)=O)CC3)cc2)c[nH]1` [Compound 97, 5′-(4-fluorophenyl)-3′-isopropyl-N-(4-(4-sulfamoylpiperazin-1-yl)phenyl)-1H,3′H-[2,4′-biimidazole]-4-carboxamide], the concentration for half-maximal inhibition (IC50) in series [1] and in series [2] was 12 to 120 nM throughout. In addition, the “Human Liver Microsome (μM/min/mg)” value in series [4] is “+ (>100 μM/min/mg as +)”.

`CC(C)n1cnc(-c2ccc(C(F)(F)F)cc2)c1-c1nc(C(=O)Nc2ccc(CCC(=O)O)cc2)c[nH]1` [Compound 133, 3-(4-(3′-isopropyl-5′-(4-(trifluoromethyl)phenyl)-1H,3′H-[2,4′-biimidazole]-4-carboxamido)phenyl)propanoic acid]: the half-maximal inhibitory concentration (IC50) in series [1] and in series [2] was above 120 nM each time. The “Human Liver Microsome (μM/min/mg)” value in series [4] is “+++ (1-10 μM/min/mg as +++)”.

As to `O=C(Nc1ccc(N2CCN(CC(F)(F)F)CC2)cc1)c1c[nH]c(-c2c(-c3ccc(F)cc3)ncn2CC(F)(F)F)n1` [Compound 192, 5′-(4-fluorophenyl)-3′-(2,2,2-trifluoroethyl)-N-(4-(4-(2,2,2-trifluoroethyl)piperazin-1-yl)phenyl)-1H,3′H-[2,4′-biimidazole]-4-carboxamide], the IC50 in series [1] was 12 to 120 nM; in series [2] it was above 120 nM; in series [3], below 0.1 nM.

In the case of `O=C(Nc1ccccc1F)c1occc1-c1c(-c2ccc(F)cc2)ncn1CC1CCOC1` (stereo not shown) [Compound 4], the IC50 in series [3] was above 1 nM.

In the case of `CC(C)n1cnc(-c2ccc(F)cc2)c1-c1nc(C(=O)Nc2ccc(N3C[C@H]4CC[C@@H](C3)N4C)cc2)c[nH]1` [Compound 186, 5′-(4-fluorophenyl)-3′-isopropyl-N-(4-((1R,5S)-8-methyl-3,8-diazabicyclo[3.2.1]octan-3-yl)phenyl)-1H,3′H-[2,4′-biimidazole]-4-carboxamide], the IC50 in series [1] and in series [2] was 1 to 12 nM throughout.

For the compound `CC(C)n1cnc(-c2ccc(F)cc2)c1-c1nc(C(=O)Nc2ccc(N3CCN(C(N)=O)CC3)cc2)c[nH]1` [Compound 99, N-(4-(4-carbamoylpiperazin-1-yl)phenyl)-5′-(4-fluorophenyl)-3′-isopropyl-1H,3′H-[2,4′-biimidazole]-4-carboxamide], the IC50 in series [1] and in series [2] was above 120 nM in each case. In addition, the “Human Liver Microsome (μM/min/mg)” value in series [4] was “++ (10-100 μM/min/mg as ++)”.

For `O=C(Nc1ccc(N2CCN(CCO)CC2)cc1)c1c[nH]c(-c2c(-c3ccc(F)cc3)ncn2[C@H]2CC[C@H](O)CC2)n1` [Compound 158, 5′-(4-fluorophenyl)-3′-((1r,4r)-4-hydroxycyclohexyl)-N-(4-(4-(2-hydroxyethyl)piperazin-1-yl)phenyl)-1H,3′H-[2,4′-biimidazole]-4-carboxamide], the IC50 was in the range of 1 to 12 nM in series [1] and 12 to 120 nM in series [2]. Also, the “Human Liver Microsome (μM/min/mg)” value in series [4] was “+++ (1-10 μM/min/mg as +++)”.

For the compound `CC(C)n1cnc(-c2ccc(F)cc2)c1-c1nc(C(=O)Nc2ccc(C(=O)O)cc2)c[nH]1` [Compound 113, 4-(5′-(4-fluorophenyl)-3′-isopropyl-1H,3′H-[2,4′-biimidazole]-4-carboxamido)benzoic acid], the 50% inhibitory concentration (IC50) in series [1] was 1 to 12 nM; in series [2], above 120 nM. In series [4], the “Human Liver Microsome (μM/min/mg)” value was “+++ (1-10 μM/min/mg as +++)”.

As for `CC(C)n1cnc(-c2ccc(F)cc2)c1-c1nc(C(=O)Nc2ccc(CCC(=O)O)cc2)c[nH]1` [Compound 102, 3-(4-(5′-(4-fluorophenyl)-3′-isopropyl-1H,3′H-[2,4′-biimidazole]-4-carboxamido)phenyl)propanoic acid], the half-maximal inhibitory concentration (IC50) is 12 to 120 nM in series [1] and above 120 nM in series [2]. The “Human Liver Microsome (μM/min/mg)” value in series [4] was “+++ (1-10 μM/min/mg as +++)”.

With `CN1CCN(c2ccc(NC(=O)c3c[nH]c(-c4c(-c5ccc(F)cc5)ncn4CC(C)(C)C)n3)cc2)CC1` [Compound 135, 5′-(4-fluorophenyl)-N-(4-(4-methylpiperazin-1-yl)phenyl)-3′-neopentyl-1H,3′H-[2,4′-biimidazole]-4-carboxamide], the half-inhibitory concentration (IC50) in series [1] was 12 to 120 nM; in series [2], above 120 nM. Besides, in series [4], the “Human Liver Microsome (μM/min/mg)” value is listed as “+ (>100 μM/min/mg as +)”.

As for `CC(C)n1cnc(-c2ccc(C(F)(F)F)cc2)c1-c1nc(C(=O)Nc2ccc(N3CCN(CCO)CC3)cc2)c[nH]1` [Compound 134], the IC50 in series [1] and in series [2] was above 120 nM in each case. In addition, the “Human Liver Microsome (μM/min/mg)” value in series [4] is “++ (10-100 μM/min/mg as ++)”.

Take `CC(C)n1cnc(-c2ccc(C(F)(F)F)cc2)c1-c1nc(C(=O)Nc2ccc(N3CCN(C)CC3)cc2)c[nH]1` [Compound 142, 3′-isopropyl-N-(4-(4-methylpiperazin-1-yl)phenyl)-5′-(4-(trifluoromethyl)phenyl)-1H,3′H-[2,4′-biimidazole]-4-carboxamide]: the IC50 in series [1] and in series [2] was above 120 nM throughout. Besides, the “Human Liver Microsome (μM/min/mg)” value in series [4] is listed as “+ (>100 μM/min/mg as +)”.

On to `CC(C)n1cnc(-c2ccc(F)cc2)c1-c1nc(C(=O)Nc2ccc(CCCCC(=O)O)cc2)c[nH]1` [Compound 132, 5-(4-(5′-(4-fluorophenyl)-3′-isopropyl-1H,3′H-[2,4′-biimidazole]-4-carboxamido)phenyl)pentanoic acid], for which the IC50 in series [1] and in series [2] was 12 to 120 nM each time. For the same compound, the “Human Liver Microsome (μM/min/mg)” value in series [4] is recorded as “+++ (1-10 μM/min/mg as +++)”.

Turning to `CN1CCN(c2ccc(NC(=O)c3c[nH]c(-c4c(-c5ccc(F)cc5)ncn4C)n3)cc2)CC1` [Compound 119, 5′-(4-fluorophenyl)-3′-methyl-N-(4-(4-methylpiperazin-1-yl)phenyl)-1H,3′H-[2,4′-biimidazole]-4-carboxamide], the IC50 in series [1] and in series [2] was above 120 nM throughout. Besides, the “Human Liver Microsome (μM/min/mg)” value in series [4] is “++ (10-100 μM/min/mg as ++)”.

Consider `CC1CN(c2ccc(NC(=O)c3c[nH]c(-c4c(-c5ccc(F)cc5)ncn4CC(F)(F)F)n3)cc2)CC(C)N1C` (stereo not shown) [Compound 190, 5′-(4-fluorophenyl)-3′-(2,2,2-trifluoroethyl)-N-(4-(3,4,5-trimethylpiperazin-1-yl)phenyl)-1H,3′H-[2,4′-biimidazole]-4-carboxamide], for which the figures for the half-maximal inhibitory concentration (IC50) in series [1], in series [2] and in series [3] were 1 to 12 nM, 12 to 120 nM and below 0.1 nM, respectively.

For `CN1CCN(c2ccc(NC(=O)c3c[nH]c(-c4ncn(C(F)F)c4-c4ccc(F)cc4)n3)cc2)CC1` [Compound 175], in series [1], the IC50 is 1 to 12 nM.

With `CC(C)n1cnc(-c2ccc(F)cc2)c1-c1nc(C(=O)Nc2ccc(N3CCNCC3)cc2)c[nH]1` [Compound 181, 5′-(4-fluorophenyl)-3′-isopropyl-N-(4-(piperazin-1-yl)phenyl)-1H,3′H-[2,4′-biimidazole]-4-carboxamide], the IC50 in series [1] and in series [2] was 12 to 120 nM throughout. For the same compound, the “Human Liver Microsome (μM/min/mg)” value in series [4] was “++ (10-100 μM/min/mg as ++)”.

On to `CN1CCN(c2ccc(NC(=O)c3c[nH]c(-c4c(-c5ccc(F)cc5)ncn4[C@H]4CC[C@@H](O)CC4)n3)cc2)CC1` [Compound 172], for which the IC50 in series [1] is 12 to 120 nM.
